US10093678B2, “Azaspiro derivatives as TRPM8 antagonists” (RaQualia Pharma Inc., priority 2014, dated 2018)
pIC50, pKi: −log10 of the molar value.

Assays:
[1] = Metabolic stability assay: half-life in human liver microsomes (HLM); format: in vitro ADME
Procedure: Metabolic Stability Assay:
Half-Life in Human Liver Microsomes (HLM)
Test compounds (1 microM) are incubated with 1 mM MgCl2 and 0.78 mg/mL HLM (HL101) or 0.74 mg/mL HLM (Gentest UltraPool 150) or 0.61 mg/mL HLM (XenoTech XTreme 200) in 100 mM potassium phosphate buffer (pH 7.4) at 37° C. on the 96-deep well plate. The reaction mixture is split into two groups, a non-P450 and a P450 groupon necessary. NADPH is only added to the reaction mixture of the P450 group. (NADPH generation system is also used instead of NADPH.) An aliquot of samples of P450 group is collected at 0, 10, 30, and 60 min time point, where 0 min time point indicated the time when NADPH is added into the reaction mixture of P450 group. An aliquot of samples of non-P450 group is collected at −10 and 65 min time point. Collected aliquots are extracted with acetonitrile solution containing an internal standard. The precipitated protein is spun down in centrifuge (2000 rpm, 15 min). The compound concentration in supernatant is measured by LC/MS/MS system.
The half-life value is obtained by plotting the natural logarithm of the peak area ratio of compounds/internal standard versus time. The slope of the line of best fit through the points yield the rate of metabolism (k). This is converted to a half-life value using following equations: Half-life=ln 2/k {Math. 4}

Human HERG = target: T1, Human HERG (Homo sapiens, UniProt Q12809); test: Human dofetilide binding assay; details: Human HERG transfected HEK293S cell membranes
T1 construct: expressed in transfected cells; host or cells: HEK293S (membrane homogenate)
T1 sequence (Q12809 whole entry): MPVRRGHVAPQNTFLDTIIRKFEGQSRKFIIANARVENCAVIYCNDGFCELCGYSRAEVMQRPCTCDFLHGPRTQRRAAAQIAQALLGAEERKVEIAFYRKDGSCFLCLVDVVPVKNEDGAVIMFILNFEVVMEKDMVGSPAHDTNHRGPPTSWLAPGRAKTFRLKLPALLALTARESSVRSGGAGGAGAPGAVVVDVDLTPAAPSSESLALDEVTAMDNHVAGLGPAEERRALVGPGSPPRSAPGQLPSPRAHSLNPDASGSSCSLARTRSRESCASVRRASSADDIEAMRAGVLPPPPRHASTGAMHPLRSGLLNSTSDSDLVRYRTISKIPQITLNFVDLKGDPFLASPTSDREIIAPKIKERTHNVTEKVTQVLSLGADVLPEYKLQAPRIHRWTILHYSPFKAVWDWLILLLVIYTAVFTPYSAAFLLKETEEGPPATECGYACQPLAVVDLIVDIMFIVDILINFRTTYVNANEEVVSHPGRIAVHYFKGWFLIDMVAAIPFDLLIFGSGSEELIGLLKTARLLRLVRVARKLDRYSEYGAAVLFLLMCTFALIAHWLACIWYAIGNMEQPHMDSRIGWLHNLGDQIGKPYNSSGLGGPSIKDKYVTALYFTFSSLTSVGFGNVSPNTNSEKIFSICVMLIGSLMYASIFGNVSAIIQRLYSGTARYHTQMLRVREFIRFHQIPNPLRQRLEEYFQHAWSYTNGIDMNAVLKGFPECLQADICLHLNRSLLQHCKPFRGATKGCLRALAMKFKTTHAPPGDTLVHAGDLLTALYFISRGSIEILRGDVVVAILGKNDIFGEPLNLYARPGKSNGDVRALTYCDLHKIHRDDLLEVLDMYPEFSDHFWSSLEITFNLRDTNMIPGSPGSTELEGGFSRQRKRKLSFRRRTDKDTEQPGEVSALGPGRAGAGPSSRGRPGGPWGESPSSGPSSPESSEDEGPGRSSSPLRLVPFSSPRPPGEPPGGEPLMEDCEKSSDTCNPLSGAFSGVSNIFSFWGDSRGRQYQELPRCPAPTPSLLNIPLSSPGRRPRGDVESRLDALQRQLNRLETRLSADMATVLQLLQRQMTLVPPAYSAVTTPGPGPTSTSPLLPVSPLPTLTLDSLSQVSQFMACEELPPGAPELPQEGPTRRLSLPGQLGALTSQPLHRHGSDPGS
Procedure: Human Dofetilide Binding Assay
Human HERG transfected HEK293S cells are prepared and grown in-house. The collected cells are suspended in 50 mM Tris-HCl (pH 7.4 at 4° C.) and homogenized using a hand held Polytron PT 1200 disruptor set at full power for 20 sec on ice. The homogenates are centrifuged at 48,000×g at 4° C. for 20 min. The pellets are then resuspended, homogenized, and centrifuged once more in the same manner. The final pellets are resuspended in an appropriate volume of 50 mM Tris-HCl, 10 mM KCl, 1 mM MgCl2 (pH 7.4 at 4° C.), homogenized, aliquoted and stored at −80° C. until use. An aliquot of membrane fractions is used for protein concentration determination using BCA protein assay kit (PIERCE) and ARVOsx plate reader (Wallac). Binding assays are conducted in a total volume of 30 microL in 384-well plates. The activity is measured by PHERAstar (BMG LABTECH) using fluorescence polarization technology. Ten microL of test compounds are incubated with 10 microL of fluorescence ligand (6 nM Cy3B tagged dofetilide derivative) and 10 microL of membrane homogenate (6 microgram protein) for 120 minutes at room temperature. Nonspecific binding is determined by 10 microM E4031 at the final concentration.

human TRPM8 = target: T2, human TRPM8 (Homo sapiens, UniProt Q7Z2W7); test: Menthol-induced Ca2+ influx in HEK293 cells stably expressing human TRPM8; format: cell-based; details: 30 microM menthol-induced Ca2+ influx, read-out: IC50 against TRPM8
T2 construct: expressed in transfected cells; host or cells: HEK293
T2 sequence (Q7Z2W7 whole entry): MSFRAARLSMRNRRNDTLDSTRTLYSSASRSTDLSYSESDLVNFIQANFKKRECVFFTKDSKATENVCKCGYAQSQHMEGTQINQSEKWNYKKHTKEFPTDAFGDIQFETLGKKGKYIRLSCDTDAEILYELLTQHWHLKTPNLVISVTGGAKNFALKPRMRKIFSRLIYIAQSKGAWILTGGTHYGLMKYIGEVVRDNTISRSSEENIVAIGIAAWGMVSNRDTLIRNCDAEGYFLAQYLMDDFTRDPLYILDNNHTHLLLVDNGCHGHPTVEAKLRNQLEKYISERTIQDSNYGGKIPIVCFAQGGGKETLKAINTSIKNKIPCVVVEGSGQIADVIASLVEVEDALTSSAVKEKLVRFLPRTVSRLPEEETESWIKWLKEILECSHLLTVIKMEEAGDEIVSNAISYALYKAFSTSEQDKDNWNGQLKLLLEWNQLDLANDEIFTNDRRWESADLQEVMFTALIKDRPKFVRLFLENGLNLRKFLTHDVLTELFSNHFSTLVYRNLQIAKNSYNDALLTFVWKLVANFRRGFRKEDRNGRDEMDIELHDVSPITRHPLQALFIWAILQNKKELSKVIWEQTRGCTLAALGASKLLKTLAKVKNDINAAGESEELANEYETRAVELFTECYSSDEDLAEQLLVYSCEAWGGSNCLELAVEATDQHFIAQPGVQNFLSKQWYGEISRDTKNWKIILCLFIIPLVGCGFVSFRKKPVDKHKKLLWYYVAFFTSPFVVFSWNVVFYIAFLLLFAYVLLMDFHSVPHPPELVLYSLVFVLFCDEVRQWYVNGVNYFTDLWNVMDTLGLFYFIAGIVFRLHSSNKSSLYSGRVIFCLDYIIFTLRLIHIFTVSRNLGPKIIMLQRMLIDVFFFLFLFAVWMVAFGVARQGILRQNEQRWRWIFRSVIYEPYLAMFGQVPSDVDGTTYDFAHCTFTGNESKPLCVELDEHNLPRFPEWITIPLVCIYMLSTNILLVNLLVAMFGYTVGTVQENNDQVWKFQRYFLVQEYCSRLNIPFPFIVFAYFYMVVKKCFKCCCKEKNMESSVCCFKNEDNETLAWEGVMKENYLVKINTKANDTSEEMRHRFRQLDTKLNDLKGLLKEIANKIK
In short: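 IC50 values were fitted from 11-point dose-response data averaged over duplicate wells. Compound was added for 5 min to Fluo4-loaded HEK293 cells carrying stable human TRPM8, in HBSS/HEPES pH 7.4 with probenecid. Intracellular Ca2+ change after 30 microM menthol addition was then imaged on FDSS.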

CC(C)[C@@H]1CC[C@@H](C)C[C@]12NC(=O)C(CC(=O)c1ccccc1)C2=O (stereo partly shown) [closest compound]
CLint scaled at 1 microM ([1]; human, pH 7.4, read-out: intrinsic clearance (CLint)): > 215 mL/min/kg
half-life at 1 microM ([1]; pH 7.4, 1 microM): < 5 min
pIC50 (Human HERG): 4.72
pKi (Human HERG): 5.19

COc1cccnc1-c1ccc(C(=O)CN2C(=O)NC3(CCC(F)(F)CC3)C2=O)cc1 [Example 6-84]
pIC50 (human TRPM8): > 7.00

Cn1c(C(=O)CN2C(=O)NC3(CCC(F)(F)CC3)C2=O)ccc1-c1ccccc1C#N [Example 16-29]
pIC50 (human TRPM8): > 6.30

Cc1nc2ccc(C#N)nc2n1-c1ccc(C(=O)CN2C(=O)NC3(CCC(F)(F)CC3)C2=O)cc1 [Example 27-1, 3-(4-(2-(8,8-difluoro-2,4-dioxo-1,3-diazaspiro[4.5]decan-3-yl)acetyl)phenyl)-2-methyl-3H-imidazo[4,5-b]pyridine-5-carbonitrile]
pIC50 (human TRPM8): > 8.00

Cc1sc(C(=O)CN2C(=O)NC3(CCC(F)(F)CC3)C2=O)c(C)c1-c1cncc(C(N)=O)c1 [Example 15-10]
pIC50 (human TRPM8): > 6.30

CN(c1ccccc1)c1ccc(C(=O)CN2C(=O)NC3(CCC(F)(F)CC3)C2=O)cn1 [Example 19-9]
pIC50 (human TRPM8): > 7.00

O=C(CN1C(=O)NC2(CCC(F)(F)CC2)C1=O)c1ccc(-c2cccnc2CO)c(F)c1 [Example 8-5]
pIC50 (human TRPM8): > 7.00
